# Target: T1, SIRT1 (Homo sapiens, UniProt Q96EB6)
# T1 sequence (Q96EB6 1-747): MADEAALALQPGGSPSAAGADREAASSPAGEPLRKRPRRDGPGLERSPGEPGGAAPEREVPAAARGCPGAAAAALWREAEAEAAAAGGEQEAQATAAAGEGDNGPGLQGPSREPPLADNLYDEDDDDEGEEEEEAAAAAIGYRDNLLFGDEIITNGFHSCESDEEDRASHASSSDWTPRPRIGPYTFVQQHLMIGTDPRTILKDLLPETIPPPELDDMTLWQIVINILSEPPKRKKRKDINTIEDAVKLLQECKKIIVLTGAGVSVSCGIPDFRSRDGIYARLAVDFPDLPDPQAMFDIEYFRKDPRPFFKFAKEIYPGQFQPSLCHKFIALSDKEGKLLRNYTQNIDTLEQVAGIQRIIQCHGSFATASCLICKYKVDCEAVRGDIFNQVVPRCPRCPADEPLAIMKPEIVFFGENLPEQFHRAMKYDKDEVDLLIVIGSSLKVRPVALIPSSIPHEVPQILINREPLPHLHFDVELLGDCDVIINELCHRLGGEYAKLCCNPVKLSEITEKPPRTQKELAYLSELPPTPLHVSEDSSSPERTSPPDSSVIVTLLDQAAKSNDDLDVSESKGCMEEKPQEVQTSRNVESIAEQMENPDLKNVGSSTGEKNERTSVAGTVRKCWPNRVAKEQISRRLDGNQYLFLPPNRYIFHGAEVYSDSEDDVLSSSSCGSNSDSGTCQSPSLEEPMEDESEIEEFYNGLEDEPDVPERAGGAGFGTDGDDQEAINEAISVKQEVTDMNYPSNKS
# Assay: Mass spectrometry based assay to identify modulators of SIRT1 activity (deacetylation of p53-based acetylated peptide substrate)
# Format: biochemical
# Details: 10 nM SIRT1, 0.5 μM peptide substrate, 120 μM βNAD+, 25 minutes at 25° C.; for EC1.5: SIRT1 activation
# Description: A mass spectrometry based assay was used to identify modulators of SIRT1 activity. The mass spectrometry based assay utilizes a peptide having 20 amino acid residues as follows: Ac-EE-K(biotin)-GQSTSSHSK(Ac)NleSTEG-K(5TMR)-EE-NH2 (SEQ ID NO: 1) wherein K(Ac) is an acetylated lysine residue and Nle is a norleucine. The peptide is labeled with the fluorophore 5TMR (excitation 540 nm/emission 580 nm) at the C-terminus. The sequence of the peptide substrate is based on p53 with several modifications. In addition, the methionine residue naturally present in the sequence was replaced with the norleucine because the methionine may be susceptible to oxidation during synthesis and purification.
# The mass spectrometry assay is conducted as follows: 0.5 μM peptide substrate and 120 μM βNAD^+ is incubated with 10 nM SIRT1 for 25 minutes at 25° C. in a reaction buffer (50 mM Tris-acetate pH 8, 137 mM NaCl, 2.7 mM KCl, 1 mM MgCl2, 5 mM DTT, 0.05% BSA). Test compounds may be added to the reaction as described above. The SirT1 gene is cloned into a T7-promoter containing vector and transformed into BL21(DE3). After the 25 minute incubation with SIRT1, 10 μL of 10% formic acid is added to stop the reaction. Reactions are sealed and frozen for later mass spec analysis. Determination of the mass of the substrate peptide allows for precise determination of the degree of acetylation (i.e. starting material) as compared to deacetylated peptide (product).
# A control for inhibition of sirtuin activity is conducted by adding 1 μL of 500 mM nicotinamide as a negative control at the start of the reaction (e.g., permits determination of maximum sirtuin inhibition). A control for activation of sirtuin activity is conducted using 10 nM of sirtuin protein, with 1 μL of DMSO in place of compound, to determine the amount of deacetylation of the substrate at a given timepoint within the linear range of the assay. This timepoint is the same as that used for test compounds and, within the linear range, the endpoint represents a change in velocity.
# For the above assay, SIRT1 protein was expressed and purified as follows. The SirT1 gene was cloned into a T7-promoter containing vector and transformed into BL21(DE3). The protein was expressed by induction with 1 mM IPTG as an N-terminal His-tag fusion protein at 18° C. overnight and harvested at 30,000×g. Cells were lysed with lysozyme in lysis buffer (50 mM Tris-HCl, 2 mM Tris[2-carboxyethyl]phosphine (TCEP), 10 μM ZnCl2, 200 mM NaCl) and further treated with sonication for 10 min for complete lysis. The protein was purified over a Ni-NTA column (Amersham) and fractions containing pure protein were pooled, concentrated and run over a sizing column (Sephadex S200 26/60 global). The peak containing soluble protein was collected and run on an Ion-exchange column (MonoQ). Gradient elution (200 mM-500 mM NaCl) yielded pure protein. This protein was concentrated and dialyzed against dialysis buffer (20 mM Tris-HCl, 2 mM TCEP) overnight. The protein was aliquoted and frozen at −80° C. until further use.
# Sirtuin modulating compounds that activated SIRT1 were identified using the assay described above and are shown below in Table 1. The EC1-5 values for the activating compounds are represented by A′ (EC1.5<250 nM), A (EC1.5≧250 nM and ≦1 uM), B (EC1.5>1 and ≦10 uM), or C (EC1.5>10 uM). The percent maximum fold activation is represented by A (Fold activation≧300%), B (Fold Activation≧150% and <300%), or C (Fold Activation<150%).
Structure (SMILES),FOLD ACT. (percent maximum fold activation),EC1.5
CC1(C)OC[C@H](COc2cc(C(=O)Nc3ccccc3-c3nc4cccnc4s3)nc(-c3ccccc3)n2)O1 [Compound 97],B (Fold Activation≧150% and <300%),C (EC1.5>10 uM)
COCCN1CCN(c2cc(C(=O)Nc3ccccc3-c3nc4cccnc4s3)nc(OC)n2)CC1 [Compound 5],A (Fold activation≧300%),A (EC1.5≧250 nM and ≦1 uM)
Cc1cccc(-c2nc(NCCN3CCCCC3)cc(C(=O)Nc3ccccc3-c3nc4cccnc4s3)n2)c1 [Compound 132],A (Fold activation≧300%),A′ (EC1.5<250 nM)
CN1CCC(Nc2cc(C(=O)Nc3ccccc3-c3nc4cccnc4s3)nc(-c3ccccc3)n2)CC1 [Compound 99],A (Fold activation≧300%),A′ (EC1.5<250 nM)
CS(=O)(=O)N1CCC(Nc2cc(C(=O)Nc3ccccc3-c3nc4cccnc4s3)nc(-c3ccccc3)n2)CC1 [Compound 135],A (Fold activation≧300%),A′ (EC1.5<250 nM)
O=C(Nc1ccccc1-c1nc2ccncc2s1)c1cc(NCc2ccncc2)nc(-c2ccccc2)n1 [Compound 32],A (Fold activation≧300%),A (EC1.5≧250 nM and ≦1 uM)
CNCCNc1cc(C(=O)Nc2ccccc2-c2nc3cccnc3s2)nc(-c2ccccc2)n1 [Compound 121],A (Fold activation≧300%),A′ (EC1.5<250 nM)
O=C(Nc1ccccc1-c1nc2cccnc2s1)c1cc(N2CCNCC2)cc(-c2ccccc2)n1 [Compound 119],A (Fold activation≧300%),A′ (EC1.5<250 nM)
O=C(Nc1ccccc1-c1nc2cccnc2s1)c1cc(OCCCO)nc(-c2ccccc2)n1 [Compound 102],B (Fold Activation≧150% and <300%),A (EC1.5≧250 nM and ≦1 uM)
O=C(Nc1ccccc1-c1nc2cccnc2s1)c1cc(NCCCO)nc(-c2ccccc2)n1 [Compound 40],A (Fold activation≧300%),A′ (EC1.5<250 nM)
Cc1cccc(-c2nc(NC(CO)CO)cc(C(=O)Nc3ccccc3-c3nc4cccnc4s3)n2)c1 [Compound 134],A (Fold activation≧300%),A′ (EC1.5<250 nM)
CC1(C)OCC(CNc2cc(C(=O)Nc3ccccc3-c3nc4cccnc4s3)nc(-c3ccccc3)n2)O1 (stereo not drawn) [Compound 96],A (Fold activation≧300%),A (EC1.5≧250 nM and ≦1 uM)
O=C(Nc1ccccc1-c1nc2cccnc2s1)c1cc(NCCN2CCNCC2)nc(-c2ccccc2)n1 [Compound 48],A (Fold activation≧300%),A′ (EC1.5<250 nM)
O=C(Nc1ccccc1-c1nc2cccnc2s1)c1cc(N2C[C@H]3C[C@@H]2CN3)nc(-c2ccccc2)n1 [Compound 71],A (Fold activation≧300%),A′ (EC1.5<250 nM)
O=C(Nc1ccccc1-c1nc2cccnc2s1)c1cc(NC2CCN(C3CC3)CC2)nc(-c2ccccc2)n1 [Compound 118],A (Fold activation≧300%),A′ (EC1.5<250 nM)
COCCN1CCN(c2cc(C(=O)Nc3ccccc3-c3nc4ccncc4s3)nc(-c3ccccc3)n2)CC1 [Compound 25],A (Fold activation≧300%),A′ (EC1.5<250 nM)
CC(=O)NCCNc1cc(C(=O)Nc2ccccc2-c2nc3cccnc3s2)nc(-c2ccccc2)n1 [Compound 51],A (Fold activation≧300%),A′ (EC1.5<250 nM)
O=C(Nc1ccccc1-c1nc2cccnc2s1)c1cc(NC2CCCNC2)nc(-c2ccccc2)n1 (stereo not drawn) [Compound 72],A (Fold activation≧300%),A′ (EC1.5<250 nM)
C[C@@H]1CN(c2cc(C(=O)Nc3ccccc3-c3nc4cccnc4s3)nc(-c3ccccc3)n2)C[C@H](C)O1 [Compound 70],B (Fold Activation≧150% and <300%),A (EC1.5≧250 nM and ≦1 uM)
O=C(Nc1ccccc1-c1nc2cccnc2s1)c1cc(NCc2ccccc2)nc(-c2ccccc2)n1 [Compound 54],C (Fold Activation<150%),C (EC1.5>10 uM)
C[C@@H]1CN(CCOc2cc(C(=O)Nc3ccccc3-c3nc4cccnc4s3)nc(-c3ccccc3)c2)C[C@H](C)O1 [Compound 36],A (Fold activation≧300%),A′ (EC1.5<250 nM)
COCCN(CCOC)c1cc(C(=O)Nc2ccccc2-c2nc3cccnc3s2)nc(-c2ccccc2)n1 [Compound 68],A (Fold activation≧300%),A′ (EC1.5<250 nM)
O=C(Nc1ccccc1-c1nc2cccnc2s1)c1cc(OCCN2CCS(=O)(=O)CC2)cc(-c2ccccc2)n1 [Compound 7],A (Fold activation≧300%),A′ (EC1.5<250 nM)
O=C(Nc1ccccc1-c1nc2cccnc2s1)c1cc(OC[C@@H](O)CO)cc(-c2ccccc2)n1 [Compound 127],A (Fold activation≧300%),A (EC1.5≧250 nM and ≦1 uM)
O=C(O)CCNc1cc(C(=O)Nc2ccccc2-c2nc3cccnc3s2)nc(-c2ccccc2)n1 [Compound 44],A (Fold activation≧300%),A (EC1.5≧250 nM and ≦1 uM)
CN(C)CCCNc1cc(C(=O)Nc2ccccc2-c2nc3cccnc3s2)nc(-c2ccccc2)n1 [Compound 88],A (Fold activation≧300%),A (EC1.5≧250 nM and ≦1 uM)
O=C(Nc1ccccc1-c1nc2cccnc2s1)c1cc(CN2CCCC2)nc(-c2ccccc2)n1 [Compound 11],A (Fold activation≧300%),B (EC1.5>1 and ≦10 uM)
CN(C)CCNc1cc(C(=O)Nc2ccccc2-c2nc3cccnc3s2)ncn1 [Compound 26],A (Fold activation≧300%),B (EC1.5>1 and ≦10 uM)
Cc1cccc(-c2nc(NCCN(C)C)cc(C(=O)Nc3ccccc3-c3nc4cccnc4s3)n2)c1 [Compound 112],A (Fold activation≧300%),A′ (EC1.5<250 nM)
Cc1ccn(CCNc2cc(C(=O)Nc3ccccc3-c3nc4cccnc4s3)nc(-c3ccccc3)n2)n1 [Compound 78],A (Fold activation≧300%),A′ (EC1.5<250 nM)
